Source: EP4741394A1, “CRYSTAL FORM OF [1,2,4]TRIAZOLO[4,3-B]PYRIDAZINE COMPOUND, AND PREPARATION METHOD THEREFOR AND USE THEREOF” (Beijing Pearl Biotechnology Limited Liability Company, priority 2023, dated 2025)
Each block holds one compound with its values, some of them ahead of it.

Assays:
Assay type in all cases: physicochemical
[1] = Thermal and moisture stability of crystal forms (HPLC and XRPD after storage in a stability test chamber); settings: for degradation: under the test conditions of Table 1; for crystal form change (overlay of XRPD forms): under the test conditions, FIGS. 15 and 16
Procedure: (§1) The crystal form of the samples was analyzed using a Bruker D8 ADVANCE or Bruker D8 Focus X-ray powder diffractometer. The samples were scanned with the 2θ scanning angle of 3° to 42°, the scanning step of 0.02°, and the scanning time of 0.05 s or 0.1 s or 0.2 s per step. The voltage and current for fluorescent tubes were 40 kV and 40 mA, respectively. During sample preparation, an appropriate amount of samples were placed on a sample tray and flattened with a glass sheet or other tools to ensure a smooth and flat surface.
Solubility and stability tests were carried out using Agilient 1260 HPLC under the following conditions: column: ZORBAX Eclipse Plus Cl8 4.6* 100 mm 3.5-Micron; flow rate: 1 mL/min; column temperature: 35 °C; injection volume: 10 µL; mobile phases: mobile phase A: 0.02 mol/L potassium dihydrogen phosphate, and mobile phase B: ACN; running time: 40 min; detector: UV at 210 nm; diluent: ACN; and injection concentration: 0.2 mg/mL.
A certain amount of samples of the crystal forms A (prepared according to the preparation method 1 of Example 1) and B (prepared according to the method of Example 2) of the compound of formula (I) were placed into a stability test chamber, and taken out for HPLC and XRPD testing after a certain period of time.
Test conditions were as follows: under open conditions at 25 °C with 60% RH (25 °C/60% RH) or at 40 °C with 75% RH (40 °C/75% RH), HPLC and XRPD was characterized after one week, two weeks, 1 month and 2 months respectively; and HPLC and XRPD were characterized under closed conditions at 80 °C for one day and under closed conditions with lighting for 10 days, respectively. Table 1: Results of Stability of Crystal Forms A and B

[2] = Stability of crystal forms in aqueous medium at 37 °C (XRPD of solids from 5 mg/mL suspension); settings: for XRPD: 37 °C; for crystal form transformation: 24 hours
Procedure: as §1
Table 2: Results of Stability of Crystal Forms A and B in Aqueous Medium at 37 °C

[3] = Solid dispersion by hot-melt extrusion with Povidone K30: content of related substance D1 and of active ingredient; settings: for Content of related substance D1 in starting material: before hot-melt extrusion, Not detected: detected content < 0.0045%; for Content of active pharmaceutical ingredient in sample / Content of related substance D1 in sample: solid dispersion, Povidone K30 1:3, hot-melt extrusion up to 200 °C
Description: Under the same hot-melt extrusion conditions, the contents of related substance D1 in the solid dispersions prepared from the crystal forms A (prepared according to the preparation method 1 of Example 1) and B (prepared according to the preparation method of Example 2) were investigated, respectively. The structure of the related substance D1 is represented by formula (II). [drawing 4]
Preparation of solid dispersion by hot-melt extrusion: the active pharmaceutical ingredient of crystal form A (prepared according to the preparation method 1 of Example 1) or B (prepared according to the method of Example 2) and Povidone K30 were weighed respectively and then evenly mixed at a ratio of 1:3; after the temperature of each temperature zone for hot-melt […] reached 130 °C, 150 °C, 180 °C, 195 °C, 200 °C, 200 °C, 200 °C, and 200 °C and balanced for 15 min, the mixture was added to the hopper of an extruder; and the resulting solids were collected and left to cool at room temperature, and then tested for the content of the related substance D1, respectively. Table 3: Results of Prepared Samples of Crystal Forms A and B
Not detected: the detected content of related substance D1 was < 0.0045%.

[4] = Hygroscopic weight gain test
Procedure: On Days 0, 20 and 25, the samples were set out respectively, with the temperature and humidity conditions controlled to 25 ± 2 °C/75 ± 5% RH and 25 ± 2 °C/90 ± 5% RH. All samples were sampled and weighed on Day 30 to calculate the hygroscopic weight gain (%).

[5] = Impact of drying conditions on crystal form stability (XRPD); settings: wet samples dried at 40 °C or 60 °C under vacuum, or under nitrogen at room temperature or 40 °C; 0 h to 48 h
Procedure: as §1

[6] = FeSSIF, 24 h (first FeSSIF line)
[7] = FeSSIF, 24 h (second FeSSIF line)

- Degradation (%) ([1]; 25 °C/60% RH, open, 1 month): 0%
- Purity (%) ([1]; 25 °C/60% RH, open, 1 month): 99.98%
- XRPD ([1]; 25 °C/60% RH, open, 1 month): Unchanged
- Degradation (%) ([1]; 25 °C/60% RH, open, 1 week): 0%
- Purity (%) ([1]; 25 °C/60% RH, open, 1 week): 99.98%
- XRPD ([1]; 25 °C/60% RH, open, 1 week): Unchanged
- Degradation (%) ([1]; 25 °C/60% RH, open, 2 months): 0.01%
- Purity (%) ([1]; 25 °C/60% RH, open, 2 months): 99.97%
- XRPD ([1]; 25 °C/60% RH, open, 2 months): Unchanged
- Degradation (%) ([1]; 25 °C/60% RH, open, 2 weeks): 0%
- Purity (%) ([1]; 25 °C/60% RH, open, 2 weeks): 99.98%
- XRPD ([1]; 25 °C/60% RH, open, 2 weeks): Unchanged
- Degradation (%) ([1]; 40 °C/75% RH, open, 1 month): 0%
- Purity (%) ([1]; 40 °C/75% RH, open, 1 month): 99.98%
- XRPD ([1]; 40 °C/75% RH, open, 1 month): Unchanged
- Degradation (%) ([1]; 40 °C/75% RH, open, 1 week): 0.01%
- Purity (%) ([1]; 40 °C/75% RH, open, 1 week): 99.97%
- XRPD ([1]; 40 °C/75% RH, open, 1 week): Unchanged
- Degradation (%) ([1]; 40 °C/75% RH, open, 2 months): 0.02%
- Purity (%) ([1]; 40 °C/75% RH, open, 2 months): 99.96%
- XRPD ([1]; 40 °C/75% RH, open, 2 months): Unchanged
- Degradation (%) ([1]; 40 °C/75% RH, open, 2 weeks): -0.01%
- Purity (%) ([1]; 40 °C/75% RH, open, 2 weeks): 99.99%
- XRPD ([1]; 40 °C/75% RH, open, 2 weeks): Unchanged
- Degradation (%) ([1]; 80 °C, closed, 1 d): 0.01%
- Purity (%) ([1]; 80 °C, closed, 1 d): 99.97%
- XRPD ([1]; 80 °C, closed, 1 d): Unchanged
- Degradation (%) ([1]; Lighting control, 10 d): 0%
- Purity (%) ([1]; Lighting control, 10 d): 99.98%
- XRPD ([1]; Lighting control, 10 d): Unchanged
- Degradation (%) ([1]; Lighting, closed, 10 d): 0%
- Purity (%) ([1]; Lighting, closed, 10 d): 99.98%
- XRPD ([1]; Lighting, closed, 10 d): Unchanged
- Purity (%) ([1]; Start): 99.98%
- degradation [1]: almost no degradation
- crystal form change (overlay of XRPD forms) [1]: have not changed
- XRPD ([2]; FaSSIF, 24 h): Unchanged
- XRPD [2, 6]: Unchanged
- XRPD [2, 7]: Unchanged
- XRPD ([2]; Water, 24 h): Unchanged
- crystal form change ([2]; all media): no change
- XRPD ([2]; pH 1.2 buffer, 24 h): Unchanged
- XRPD ([2]; pH 3.0 buffer, 24 h): Unchanged
- XRPD ([2]; pH 4.5 buffer, 24 h): Unchanged
- XRPD ([2]; pH 6.8 buffer, 24 h): Unchanged
- XRPD ([2]; pH 7.4 buffer, 24 h): Unchanged
- Content of related substance D1 in starting material [3]: Not detected
- Content of active pharmaceutical ingredient in sample [3]: 101.8%
- Content of related substance D1 in sample [3]: 0.05%
- Hygroscopic weight gain (%) ([4]; 25 + 2°C/90 + 5% RH, 5 days): 1%
- Hygroscopic weight gain (%) ([4]; 25 + 2°C/90 + 5% RH, 10 days): 1%
- Hygroscopic weight gain (%) ([4]; 25 + 2°C/90 + 5% RH, 30 days): 1%
- Hygroscopic weight gain (%) ([4]; 25 ± 2°C/75 + 5% RH, 5 days): 1%
- Hygroscopic weight gain (%) ([4]; 25 ± 2°C/75 + 5% RH, 10 days): 1%
- Hygroscopic weight gain (%) ([4]; 25 ± 2°C/75 + 5% RH, 30 days): 1%
- hygroscopic weight gain ([4]; high humidity conditions for 5 days, 10 days and 30 days (text summary; less than 2%, slight hygroscopicity)): approximately 1%
SMILES: Cn1cc2cc(C(F)(F)c3nnc4ccc(-c5cnn(C6CC6)c5)nn34)c(F)cc2n1 [Crystal form B]
- crystal form during drying (XRPD) [5]: no other crystal forms appear during drying

- Degradation (%) ([1]; 25 °C/60% RH, open, 1 month): 0%
- Purity (%) ([1]; 25 °C/60% RH, open, 1 month): 99.98%
- XRPD ([1]; 25 °C/60% RH, open, 1 month): Unchanged
- Degradation (%) ([1]; 25 °C/60% RH, open, 1 week): 0%
- Purity (%) ([1]; 25 °C/60% RH, open, 1 week): 99.98%
- XRPD ([1]; 25 °C/60% RH, open, 1 week): Unchanged
- Degradation (%) ([1]; 25 °C/60% RH, open, 2 months): 0%
- Purity (%) ([1]; 25 °C/60% RH, open, 2 months): 99.98%
- XRPD ([1]; 25 °C/60% RH, open, 2 months): Unchanged
- Degradation (%) ([1]; 25 °C/60% RH, open, 2 weeks): 0%
- Purity (%) ([1]; 25 °C/60% RH, open, 2 weeks): 99.98%
- XRPD ([1]; 25 °C/60% RH, open, 2 weeks): Unchanged
- Degradation (%) ([1]; 40 °C/75% RH, open, 1 month): 0%
- Purity (%) ([1]; 40 °C/75% RH, open, 1 month): 99.98%
- XRPD ([1]; 40 °C/75% RH, open, 1 month): Unchanged
- Degradation (%) ([1]; 40 °C/75% RH, open, 1 week): 0.01%
- Purity (%) ([1]; 40 °C/75% RH, open, 1 week): 99.97%
- XRPD ([1]; 40 °C/75% RH, open, 1 week): Unchanged
- Degradation (%) ([1]; 40 °C/75% RH, open, 2 months): 0.01%
- Purity (%) ([1]; 40 °C/75% RH, open, 2 months): 99.97%
- XRPD ([1]; 40 °C/75% RH, open, 2 months): Unchanged
- Degradation (%) ([1]; 40 °C/75% RH, open, 2 weeks): 0%
- Purity (%) ([1]; 40 °C/75% RH, open, 2 weeks): 99.98%
- XRPD ([1]; 40 °C/75% RH, open, 2 weeks): Unchanged
- Degradation (%) ([1]; 80 °C, closed, 1 d): 0%
- Purity (%) ([1]; 80 °C, closed, 1 d): 99.98%
- XRPD ([1]; 80 °C, closed, 1 d): Unchanged
- Degradation (%) ([1]; Lighting control, 10 d): 0%
- Purity (%) ([1]; Lighting control, 10 d): 99.98%
- XRPD ([1]; Lighting control, 10 d): Unchanged
- Degradation (%) ([1]; Lighting, closed, 10 d): 0%
- Purity (%) ([1]; Lighting, closed, 10 d): 99.98%
- XRPD ([1]; Lighting, closed, 10 d): Unchanged
- Purity (%) ([1]; Start): 99.98%
- degradation [1]: almost no degradation
- crystal form change (overlay of XRPD forms) [1]: have not changed
- XRPD ([2]; FaSSIF, 24 h): Unchanged
- XRPD [2, 6]: Unchanged
- XRPD [2, 7]: Unchanged
- XRPD ([2]; Water, 24 h): Crystal form B
- crystal form transformation ([2]; buffers of different pHs and water): transformed to the crystal form B
- XRPD ([2]; pH 1.2 buffer, 24 h): Crystal form B
- XRPD ([2]; pH 3.0 buffer, 24 h): Crystal form B
- XRPD ([2]; pH 4.5 buffer, 24 h): Crystal form B
- XRPD ([2]; pH 6.8 buffer, 24 h): Crystal form B
- XRPD ([2]; pH 7.4 buffer, 24 h): Crystal form B
- crystal form transformation ([2]; simulated biological media): without crystal form transformation
- Content of related substance D1 in starting material [3]: Not detected
- Content of active pharmaceutical ingredient in sample [3]: 101.6%
- Content of related substance D1 in sample [3]: 0.08%
SMILES: Cn1cc2cc(C(F)(F)c3nnc4ccc(-c5cnn(C6CC6)c5)nn34)c(F)cc2n1 [Crystal form A]
